This experiment has as its system human peripheral blood mononuclear cells (PBMCs). Put plainly: Proliferation of CFSE-labeled activated PBMCs in the presence of adenosine. The format is cell-based. To be noted: PBMCs + anti-CD3/CD28 + IL-2 + Ado 0.1 mM + compound 15 μM, 3 days. The text has this: To gain evidence supporting the role of the here optimized A2BAR antagonists in the context of cancer immunotherapy, it was decided to evaluate the effect of two representative compounds (16b and 16j) in the proliferative activity of a prototypical immune cell. The human peripheral blood mononuclear cells (PBMCs) were selected for the study; they are critical components of the immune system and are involved in both humoral and cell-mediated immunity. Ado-mediated blockade of PBMC proliferation is well documented and characterized;[51],[52] we therefore investigated whether our A2BAR antagonists (16b and 16j) can reverse the blockade of ADO-mediated proliferation in human PBMCs. PBMCs, isolated from a healthy donor, were labeled with carboxyfluorescein succinimidyl ester (CFSE) and then activated by adding anti-CD3/CD28 antibodies and interleukin 2 (IL-2). CFSE is a cell dye that allows for the determination of cell proliferation, as dividing cells progressively lose fluorescence.
Figure 10 Effect of compounds 16b and 16j on the proliferation of PBMCs stimulated with antiCD3/CD28 + IL-2 in the presence of adenosine (ADO). […] The frequency of proliferating cells (CFSE^dim) as well as their median fluorescence intensities were quantified and ratios calculated against the values of stimulated PBMCs with no further treatment. […]

The results in this text go back to publication PMC9841532, “Exploring the Effect of Halogenation in a Series of Potent and Selective A2B Adenosine Receptor Antagonists” (Journal of Medicinal Chemistry, 2022).

SMILES strings stand for the structures.

Take `CC1=C(C(=O)OC(C)C)C(c2ccco2)n2c(nc3cc(F)ccc32)N1` (centres unmarked) [16b]: the “frequency of proliferating cells (CFSEdim)” value is reported as 9.14%.
The value for `CC1=C(C(=O)OC(C)C)C(c2ccco2)n2c(nc3cc(Cl)ccc32)N1` (centres unmarked) [16j] was 6.54%.
